Measured values taken from ChEMBL document CHEMBL4507283, “Data for DCP probe BI-1935” (2021).

Tests used:
[1] = molecular target: Serine/threonine-protein kinase SBK1 (Homo sapiens) (UniProt Q52WX2); conditions: Compound concentration 1000.0 nM
[2] = molecular target: Endothelin-converting enzyme 1 (Homo sapiens) (UniProt P42892); assay: ECE-1 (HU) Eurofins-Panlabs selectivity data (BI); conditions: Compound concentration 10.0 uM
[3] = molecular target: Tyrosine-protein kinase Lck (Homo sapiens) (UniProt P06239); conditions: Compound concentration 1000.0 nM
[4] = molecular target: Sodium-dependent dopamine transporter (Homo sapiens, UniProt Q01959); assay: DATRANS/H Eurofins-Panlabs selectivity data (BI); conditions: Compound concentration 10.0 uM
[5] = molecular target: STE20/SPS1-related proline-alanine-rich protein kinase (Homo sapiens) (UniProt Q9UEW8); conditions: Compound concentration 1000.0 nM
[6] = molecular target: Voltage-dependent L-type calcium channel subunit alpha-1C (DHP site) (Rattus norvegicus, UniProt P22002); assay: CA+/DHPSI/RA Eurofins-Panlabs selectivity data (BI); conditions: compound concentration 10 uM, read-out: % Ctrl
Voltage-dependent L-type calcium channel subunit alpha-1C (DHP site), sequence (P22002 whole entry): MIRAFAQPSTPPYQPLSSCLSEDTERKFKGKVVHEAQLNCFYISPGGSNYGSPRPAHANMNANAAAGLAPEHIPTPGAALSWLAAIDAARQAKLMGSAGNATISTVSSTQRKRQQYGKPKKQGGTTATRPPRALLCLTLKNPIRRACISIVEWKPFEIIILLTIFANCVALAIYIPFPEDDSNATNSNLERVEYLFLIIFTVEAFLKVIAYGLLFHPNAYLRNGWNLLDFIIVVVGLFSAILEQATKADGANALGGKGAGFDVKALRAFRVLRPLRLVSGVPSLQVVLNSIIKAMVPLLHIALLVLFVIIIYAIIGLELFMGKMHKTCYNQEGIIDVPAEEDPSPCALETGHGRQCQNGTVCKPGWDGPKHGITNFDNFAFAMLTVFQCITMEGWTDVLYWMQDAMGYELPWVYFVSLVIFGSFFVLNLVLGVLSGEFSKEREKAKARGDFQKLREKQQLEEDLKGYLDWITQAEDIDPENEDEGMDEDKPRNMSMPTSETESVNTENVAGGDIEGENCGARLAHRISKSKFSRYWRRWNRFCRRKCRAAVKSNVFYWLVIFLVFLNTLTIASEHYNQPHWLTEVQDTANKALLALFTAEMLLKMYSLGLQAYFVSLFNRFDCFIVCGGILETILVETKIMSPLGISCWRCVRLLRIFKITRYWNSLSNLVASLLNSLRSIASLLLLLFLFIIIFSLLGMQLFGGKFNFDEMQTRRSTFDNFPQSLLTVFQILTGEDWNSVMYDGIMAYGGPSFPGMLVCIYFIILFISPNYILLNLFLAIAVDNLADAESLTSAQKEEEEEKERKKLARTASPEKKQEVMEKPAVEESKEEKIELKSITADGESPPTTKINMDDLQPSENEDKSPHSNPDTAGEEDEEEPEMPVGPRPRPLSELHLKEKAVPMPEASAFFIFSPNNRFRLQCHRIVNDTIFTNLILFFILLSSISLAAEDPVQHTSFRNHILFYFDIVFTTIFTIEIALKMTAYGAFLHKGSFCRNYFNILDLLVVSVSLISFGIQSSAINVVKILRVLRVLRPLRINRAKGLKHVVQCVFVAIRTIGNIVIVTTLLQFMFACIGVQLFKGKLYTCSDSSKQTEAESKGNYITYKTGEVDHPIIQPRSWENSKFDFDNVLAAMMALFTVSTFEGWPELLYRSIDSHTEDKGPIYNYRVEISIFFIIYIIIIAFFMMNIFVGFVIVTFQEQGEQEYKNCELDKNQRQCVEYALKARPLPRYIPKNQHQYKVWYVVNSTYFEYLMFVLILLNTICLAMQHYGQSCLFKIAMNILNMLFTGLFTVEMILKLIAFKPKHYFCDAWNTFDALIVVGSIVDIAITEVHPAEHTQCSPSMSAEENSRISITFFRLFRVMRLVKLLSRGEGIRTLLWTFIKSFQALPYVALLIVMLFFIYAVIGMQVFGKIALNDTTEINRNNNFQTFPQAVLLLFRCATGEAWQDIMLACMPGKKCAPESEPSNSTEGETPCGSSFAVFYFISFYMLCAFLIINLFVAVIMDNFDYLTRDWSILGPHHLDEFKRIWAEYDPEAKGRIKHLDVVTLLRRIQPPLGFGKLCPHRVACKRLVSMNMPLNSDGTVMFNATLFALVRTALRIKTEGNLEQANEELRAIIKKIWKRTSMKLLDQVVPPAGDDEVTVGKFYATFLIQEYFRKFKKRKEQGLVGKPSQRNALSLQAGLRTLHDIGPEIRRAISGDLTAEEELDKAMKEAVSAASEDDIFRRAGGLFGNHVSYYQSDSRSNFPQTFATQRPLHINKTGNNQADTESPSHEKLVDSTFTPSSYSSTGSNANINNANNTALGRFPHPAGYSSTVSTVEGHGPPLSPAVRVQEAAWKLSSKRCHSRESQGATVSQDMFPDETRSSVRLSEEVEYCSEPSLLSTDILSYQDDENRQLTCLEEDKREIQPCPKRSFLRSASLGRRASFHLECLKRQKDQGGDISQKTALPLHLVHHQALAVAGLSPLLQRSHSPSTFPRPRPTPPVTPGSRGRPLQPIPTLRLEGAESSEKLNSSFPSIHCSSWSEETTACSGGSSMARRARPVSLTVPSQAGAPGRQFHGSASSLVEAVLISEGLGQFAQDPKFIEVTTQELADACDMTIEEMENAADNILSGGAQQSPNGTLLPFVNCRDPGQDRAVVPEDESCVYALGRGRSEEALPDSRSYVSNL

[7] = molecular target: Macrophage-stimulating protein receptor (Homo sapiens) (UniProt Q04912); conditions: Compound concentration 1000.0 nM
Macrophage-stimulating protein receptor (Homo sapiens), sequence (Q04912 25-304 limits assumed): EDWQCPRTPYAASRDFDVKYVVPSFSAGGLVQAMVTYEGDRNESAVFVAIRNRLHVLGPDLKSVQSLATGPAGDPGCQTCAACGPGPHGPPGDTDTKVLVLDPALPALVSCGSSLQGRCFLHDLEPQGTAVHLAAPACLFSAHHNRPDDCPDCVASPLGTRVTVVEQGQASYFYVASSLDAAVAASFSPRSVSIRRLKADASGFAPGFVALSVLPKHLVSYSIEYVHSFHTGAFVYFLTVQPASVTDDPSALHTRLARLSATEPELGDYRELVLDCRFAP
Macrophage-stimulating protein receptor (Homo sapiens), sequence (Q04912 310-1400 limits assumed): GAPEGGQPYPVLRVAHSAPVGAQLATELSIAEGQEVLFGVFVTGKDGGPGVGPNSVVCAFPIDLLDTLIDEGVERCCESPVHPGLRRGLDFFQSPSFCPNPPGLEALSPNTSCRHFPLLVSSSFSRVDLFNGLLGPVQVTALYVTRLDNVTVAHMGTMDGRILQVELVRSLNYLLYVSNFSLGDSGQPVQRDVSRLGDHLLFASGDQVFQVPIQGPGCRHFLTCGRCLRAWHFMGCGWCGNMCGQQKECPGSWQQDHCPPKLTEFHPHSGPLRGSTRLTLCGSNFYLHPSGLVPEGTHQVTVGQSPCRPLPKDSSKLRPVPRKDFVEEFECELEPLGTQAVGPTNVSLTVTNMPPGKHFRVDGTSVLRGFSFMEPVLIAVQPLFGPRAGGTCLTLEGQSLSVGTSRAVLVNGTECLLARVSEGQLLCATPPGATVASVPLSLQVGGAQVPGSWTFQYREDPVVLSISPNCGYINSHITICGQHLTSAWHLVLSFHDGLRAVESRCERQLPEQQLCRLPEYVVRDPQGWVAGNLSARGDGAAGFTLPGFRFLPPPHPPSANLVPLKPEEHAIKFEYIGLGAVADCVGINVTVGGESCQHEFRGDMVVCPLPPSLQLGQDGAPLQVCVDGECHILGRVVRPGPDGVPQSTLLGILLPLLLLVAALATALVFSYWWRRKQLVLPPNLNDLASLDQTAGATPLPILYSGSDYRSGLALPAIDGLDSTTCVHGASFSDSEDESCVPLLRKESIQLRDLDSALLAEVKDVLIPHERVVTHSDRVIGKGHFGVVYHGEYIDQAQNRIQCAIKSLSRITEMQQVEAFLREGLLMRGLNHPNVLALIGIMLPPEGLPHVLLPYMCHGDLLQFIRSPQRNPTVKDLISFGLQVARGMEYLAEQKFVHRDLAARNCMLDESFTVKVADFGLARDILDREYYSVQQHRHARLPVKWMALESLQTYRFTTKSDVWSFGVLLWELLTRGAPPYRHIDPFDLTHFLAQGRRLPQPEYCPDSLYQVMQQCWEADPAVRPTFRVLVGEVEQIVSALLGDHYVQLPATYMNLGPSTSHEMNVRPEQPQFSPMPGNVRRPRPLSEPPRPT

[8] = molecular target: Death-associated protein kinase 3 (Homo sapiens) (UniProt O43293); conditions: Compound concentration 1000.0 nM
[9] = molecular target: Cyclin-dependent kinase 2 (Homo sapiens) (UniProt P24941); conditions: Compound concentration 1000.0 nM
[10] = molecular target: Mitogen-activated protein kinase 3 (Homo sapiens) (UniProt P27361); conditions: Compound concentration 1000.0 nM
[11] = molecular target: Serine/threonine-protein kinase Nek9 (Homo sapiens) (UniProt Q8TD19); conditions: Compound concentration 1000.0 nM
[12] = molecular target: Serine/threonine-protein kinase RIO2 (Homo sapiens) (UniProt Q9BVS4); conditions: Compound concentration 1000.0 nM
[13] = molecular target: 5-hydroxytryptamine receptor 7 (Homo sapiens) (UniProt P34969); conditions: Compound concentration 10.0 uM
[14] = molecular target: Serine/threonine-protein kinase PRP4 homolog (Homo sapiens) (UniProt Q13523); conditions: Compound concentration 1000.0 nM
[15] = molecular target: Cyclin-dependent kinase-like 5 (Homo sapiens) (UniProt O76039); conditions: Compound concentration 1000.0 nM
[16] = molecular target: Cannabinoid receptor 1 (Homo sapiens) (UniProt P21554); assay: CB1/H Eurofins-Panlabs selectivity data (BI); conditions: Compound concentration 10.0 uM
[17] = molecular target: Casein kinase I isoform alpha-like (Homo sapiens) (UniProt Q8N752); conditions: Compound concentration 1000.0 nM
[18] = molecular target: Prostaglandin G/H synthase 1 (Homo sapiens) (UniProt P23219); assay: COX-1 Eurofins-Panlabs selectivity data (BI); conditions: Compound concentration 10.0 uM
[19] = molecular target: Calcium/calmodulin-dependent protein kinase kinase 1 (Homo sapiens) (UniProt Q8N5S9); conditions: Compound concentration 1000.0 nM
[20] = test system: Epidermal growth factor receptor (Homo sapiens), P00533 [L858R,T790M]; conditions: Compound concentration 1000.0 nM
[21] = molecular target: Mitogen-activated protein kinase kinase kinase 12 (Homo sapiens) (UniProt Q12852); conditions: Compound concentration 1000.0 nM
[22] = molecular target: Inhibitor of nuclear factor kappa-B kinase subunit alpha (Homo sapiens) (UniProt O15111); conditions: Compound concentration 1000.0 nM
[23] = molecular target: Serine/threonine-protein kinase Sgk2 (Homo sapiens) (UniProt Q9HBY8); conditions: Compound concentration 1000.0 nM
[24] = molecular target: Serine/threonine-protein kinase LATS1 (Homo sapiens) (UniProt O95835); conditions: Compound concentration 1000.0 nM
[25] = molecular target: Ribosomal protein S6 kinase alpha-4 (Homo sapiens) (UniProt O75676); conditions: Compound concentration 1000.0 nM
[26] = molecular target: Mitogen-activated protein kinase 10 (Homo sapiens) (UniProt P53779); conditions: Compound concentration 1000.0 nM
[27] = molecular target: cAMP-dependent protein kinase catalytic subunit beta (Homo sapiens) (UniProt P22694); conditions: Compound concentration 1000.0 nM
[28] = molecular target: Cyclin-dependent kinase 4 (Homo sapiens) (UniProt P11802); conditions: Compound concentration 1000.0 nM
Cyclin-dependent kinase 4 (Homo sapiens), sequence (P11802 whole entry): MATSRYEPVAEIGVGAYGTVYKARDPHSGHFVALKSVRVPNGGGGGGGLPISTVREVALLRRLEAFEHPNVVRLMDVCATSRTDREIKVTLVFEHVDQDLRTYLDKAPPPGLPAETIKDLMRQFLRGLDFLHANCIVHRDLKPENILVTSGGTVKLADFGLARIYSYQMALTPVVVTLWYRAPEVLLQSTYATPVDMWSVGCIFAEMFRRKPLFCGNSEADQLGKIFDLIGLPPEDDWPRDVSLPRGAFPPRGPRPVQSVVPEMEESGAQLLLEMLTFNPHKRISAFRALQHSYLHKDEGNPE

[29] = molecular target: Beta-2 adrenergic receptor (Homo sapiens) (UniProt P07550); conditions: Compound concentration 10.0 uM
[30] = molecular target: Platelet-derived growth factor receptor beta (Homo sapiens) (UniProt P09619); conditions: Compound concentration 1000.0 nM
[31] = molecular target: Beta-1 adrenergic receptor (Homo sapiens) (UniProt P08588); conditions: Compound concentration 10.0 uM
[32] = molecular target: Protein kinase C delta type (Homo sapiens) (UniProt Q05655); conditions: Compound concentration 1000.0 nM
Protein kinase C delta type (Homo sapiens), sequence (Q05655 whole entry, looked up): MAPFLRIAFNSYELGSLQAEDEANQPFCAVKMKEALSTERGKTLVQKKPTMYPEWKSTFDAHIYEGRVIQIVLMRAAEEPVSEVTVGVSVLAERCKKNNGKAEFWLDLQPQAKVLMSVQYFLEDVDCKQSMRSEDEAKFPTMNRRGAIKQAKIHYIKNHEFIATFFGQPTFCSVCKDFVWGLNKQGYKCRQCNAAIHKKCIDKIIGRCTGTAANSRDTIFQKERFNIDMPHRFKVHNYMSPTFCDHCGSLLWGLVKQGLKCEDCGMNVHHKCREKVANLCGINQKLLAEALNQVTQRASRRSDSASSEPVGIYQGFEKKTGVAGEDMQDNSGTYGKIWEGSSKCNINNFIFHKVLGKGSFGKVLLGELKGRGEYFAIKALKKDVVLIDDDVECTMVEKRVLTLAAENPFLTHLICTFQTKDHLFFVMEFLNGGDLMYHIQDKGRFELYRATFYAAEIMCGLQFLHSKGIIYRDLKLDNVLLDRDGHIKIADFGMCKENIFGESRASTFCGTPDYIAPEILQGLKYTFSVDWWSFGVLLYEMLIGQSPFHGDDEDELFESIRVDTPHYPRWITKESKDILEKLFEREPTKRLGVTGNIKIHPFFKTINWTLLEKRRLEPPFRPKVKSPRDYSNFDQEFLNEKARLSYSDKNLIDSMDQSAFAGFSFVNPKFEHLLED

[33] = molecular target: Cyclin-dependent kinase 4 (Homo sapiens) (UniProt P11802); conditions: Compound concentration 1000.0 nM; remark: listed apart in the source
[34] = molecular target: Activated CDC42 kinase 1 (Homo sapiens) (UniProt Q07912); conditions: Compound concentration 1000.0 nM
[35] = molecular target: Cyclin-dependent kinase 16 (Homo sapiens) (UniProt Q00536); conditions: Compound concentration 1000.0 nM
[36] = molecular target: Muscarinic acetylcholine receptor M4 (Homo sapiens) (UniProt P08173); conditions: Compound concentration 10.0 uM
Muscarinic acetylcholine receptor M4 (Homo sapiens), sequence (P08173 whole entry): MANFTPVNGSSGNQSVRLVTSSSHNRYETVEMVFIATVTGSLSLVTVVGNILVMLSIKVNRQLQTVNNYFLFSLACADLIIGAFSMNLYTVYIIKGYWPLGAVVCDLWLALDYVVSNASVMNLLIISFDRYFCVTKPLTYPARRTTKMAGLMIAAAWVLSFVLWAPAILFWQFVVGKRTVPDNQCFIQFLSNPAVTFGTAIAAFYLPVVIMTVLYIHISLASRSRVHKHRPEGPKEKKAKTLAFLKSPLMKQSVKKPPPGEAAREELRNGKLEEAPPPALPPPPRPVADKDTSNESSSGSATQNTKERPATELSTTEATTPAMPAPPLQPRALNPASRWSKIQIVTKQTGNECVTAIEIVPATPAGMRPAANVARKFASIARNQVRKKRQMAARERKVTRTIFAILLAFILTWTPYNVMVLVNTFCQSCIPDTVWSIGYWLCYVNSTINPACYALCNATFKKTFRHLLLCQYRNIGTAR

[37] = molecular target: Ephrin type-B receptor 3 (Homo sapiens) (UniProt P54753); conditions: Compound concentration 1000.0 nM
[38] = molecular target: Tyrosine-protein kinase JAK3 (Homo sapiens) (UniProt P52333); conditions: Compound concentration 1000.0 nM
[39] = molecular target: Calcium/calmodulin-dependent protein kinase type 1B (Homo sapiens) (UniProt Q6P2M8); conditions: Compound concentration 1000.0 nM
[40] = molecular target: Serine/threonine-protein kinase ULK2 (Homo sapiens) (UniProt Q8IYT8); conditions: Compound concentration 1000.0 nM
[41] = molecular target: Mitogen-activated protein kinase kinase kinase 14 (Homo sapiens) (UniProt Q99558); conditions: Compound concentration 1000.0 nM
[42] = molecular target: Interleukin-1 receptor-associated kinase 3 (Homo sapiens) (UniProt Q9Y616); conditions: Compound concentration 1000.0 nM
[43] = molecular target: Adrenergic receptor alpha-1 (Rattus norvegicus) (UniProt P15823+P23944+P43140); assay: ALPHA1/R Eurofins-Panlabs selectivity data (BI); assay type: protein assay; conditions: Compound concentration 10.0 uM
[44] = molecular target: Phosphorylase b kinase regulatory subunit alpha, liver isoform (Homo sapiens) (UniProt P46019); conditions: Compound concentration 1000.0 nM
[45] = molecular target: Serine/threonine-protein kinase TBK1 (Homo sapiens) (UniProt Q9UHD2); conditions: Compound concentration 1000.0 nM

CCOCCn1cc(C(=O)Nc2ccc(-n3nc(-c4cccnc4)cc3C(F)(F)F)cn2)ccc1=O [BI 1935]
residual activity [1]: 91% | residual activity [2]: 84% | residual activity [3]: 100% | residual activity [4]: 98% | residual activity [5]: 100% | activity at 10 µM [6]: 94.5% (not active) | residual activity [7]: 100% | residual activity [8]: 91% | residual activity [9]: 100% | residual activity [10]: 100% | residual activity [11]: 100% | residual activity [12]: 60% | inhibition [13]: -4.21% | residual activity [14]: 97% | residual activity [15]: 90% | residual activity [16]: 81% | residual activity [17]: 100% | residual activity [18]: 163% | residual activity [19]: 100% | residual activity [20]: 96% | residual activity [21]: 100% | residual activity [22]: 100% | residual activity [23]: 100% | residual activity [24]: 69% | residual activity [25]: 80% | residual activity [26]: 100% | residual activity [27]: 100% | residual activity [28]: 87% | inhibition [29]: -1.17% | residual activity [30]: 88% | inhibition [31]: -9.69% | residual activity [32]: 100% | residual activity [33]: 81% | residual activity [34]: 81% | residual activity [35]: 98% | inhibition [36]: 4.25% | residual activity [37]: 89% | residual activity [38]: 100% | residual activity [39]: 79% | residual activity [40]: 74% | residual activity [41]: 69% | residual activity [42]: 100% | residual activity [43]: 94% | residual activity [44]: 100% | residual activity [45]: 76%
